# Laboratory results from publication PMC12514245, “Impaired migration and lung invasion of human melanoma by a novel small molecule targeting the transmembrane domain of death receptor p75^NTR” (EMBO Molecular Medicine, 2025).
# Where “and” joins values, the source holds several entries; their conditions need not be identical. Identical values can stand only once. Like-named read-outs stand apart in the source and are kept apart here.
# Key:
# [1] = Cell viability (Presto Blue), A875 NT; format: cell-based, human; conditions: human, A875 NT cells, 2 days; for viability at 2 days, 1 uM: Div17E5 1 uM; for viability at 2 days, 1.5 uM: Div17E5 1.5 uM
# Experimental: (§1) To measure the cytotoxic effect of Div17E5, A875 NT or shp75 cells were seeded at 2000 cells per well (in 100 μL DMEM) in a 96-well plate and incubated for 12 h. Next, Div17E5 at various concentrations was added and incubated at 37 °C in 5% CO2 for 2 days. Following treatment, 10 μL Presto Blue® (resazurin, ThermoFIsher) was added to each well of the 96-well plate and incubated for 2 h at 37 °C in 5% CO2. Cellular fluorescence in each well was measured at 535 nm excitation and 615 nm emission using a microtiter plate reader. Data was converted into the relative cell viability (%) from the fluorescence of cells in each treatment relative to that of the DMSO control group (set as 100%).
# A875 NT cells = assay: Cell viability (Presto Blue), A875 NT; format: cell-based, human
# Experimental: as §1
# [2] = target: T1, fascin/p75^NTR interaction (Homo sapiens, UniProt P08138); assay: Co-immunoprecipitation of fascin with p75NTR in A875 cells; format: cell-based; conditions: 1 μM; NGF 100 ng/ml
# T1 construct: endogenous in cells; host or cells: A875-NT (and A875 sh-p75NTR knock-down control)
# T1 sequence (P08138 29-427): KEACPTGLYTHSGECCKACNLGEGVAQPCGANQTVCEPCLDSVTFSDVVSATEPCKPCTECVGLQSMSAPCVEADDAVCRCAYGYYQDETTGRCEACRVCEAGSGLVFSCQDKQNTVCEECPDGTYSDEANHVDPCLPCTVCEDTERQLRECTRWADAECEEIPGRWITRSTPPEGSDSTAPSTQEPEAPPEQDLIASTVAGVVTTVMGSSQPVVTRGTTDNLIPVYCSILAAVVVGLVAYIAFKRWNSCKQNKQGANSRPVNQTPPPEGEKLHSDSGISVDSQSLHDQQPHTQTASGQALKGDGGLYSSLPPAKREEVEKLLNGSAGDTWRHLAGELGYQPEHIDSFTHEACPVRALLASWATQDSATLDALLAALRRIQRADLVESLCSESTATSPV
# Experimental: For co-immunoprecipitation analysis of p75^NTR/fascin interactions, A875 sh-p75^NTR and A875-NT cells were plated in a 10 cm tissue culture dish at a confluency of 3 × 10^6 cells/dish in normal growth media. Twenty-four hours after plating, the cells were treated with 1 μM 4A22 and NGF (100 ng/ml) for 12 h prior to harvest and lysis in lysis buffer (50 mM Tris/HCl pH 7.5, 1 mM EDTA, 270 mM Sucrose, 1% (v/v) Triton X-100, 0.1% (v/v) 2-mercaptoethanol and 60 mM n-Octyl-β-D glucopyranoside) containing protease inhibitor cocktail. The cellular extracts were then centrifuged at 4 °C top speed on a benchtop centrifuge for 1 min and the supernatant was collected. For immunoprecipitation, A875 cell extracts were incubated for 16 h at 4 °C on a rotating wheel with 0.8 μg of anti-p75^NTR antibody (ANT-007, Alomone) and then incubated with Sepharose protein-G beads (GE Healthcare). The beads were collected by brief centrifugation (2 min, 2500 rpm, 4 °C), washed three times with 1 ml of Wash Buffer (with composition same as the lysis buffer). After the last wash, pelleted beads were aspirated off the wash buffer followed by addition of Laemmli sample buffer and analysis by SDS–PAGE followed by Western Blot using anti-fascin antibody (MA5-11483, Invitrogen).
# [3] = tested on: fascin in Triton-insoluble fraction of A875 NT cells; assay: Detergent-insolubility assay of fascin, A875 NT; format: cell-based, human; conditions: for Fold change (compared to untreated cells): insoluble/total fascin
# Experimental: A single cell suspension was obtained by trypsinization followed by centrifugation and detergent extraction with lysis buffer (with 0.5% Triton X-100). Then, immediately centrifuged at 8700 g for 3 min. The resulting pellets (containing the Triton X-100-resistant proteins) were suspended in lysis buffer without Triton X-100. In parallel, cells were centrifuged and then directly suspended in lysis buffer. The Triton X-100- resistant proteins and total cell lysates were analyzed by SDS–PAGE and Western blotting with anti-fascin antibody.
# A875 shp75 cells = assay: Filopodia per cell (phalloidin staining), A875 shp75; format: cell-based, human; conditions: for filopodia per cell (mean of 3 experiments) / filopodia per cell (mean of one experiment): A875 shp75; for filopodia per cell (mean of one experiment): EXP1-EXP3
# Experimental: For assessment of actin filaments, A875 cells were plated on glass coverslips in 24-well plate at a confluency of 3 × 10^4 cells/well. One day after plating, the cells were treated with 1 μM or 5 μM Np75-4A22 and NGF (100 ng/ml) or PBS for 24 h. Cells were fixed in 4% paraformaldehyde, permeabilized in 0.1% Triton-X-100, stained with Phalloidin-iFluor 488 (Abcam) at 1:2000 dilution and DAPI for 1 h. Coverslips were mounted and visualized in a laser confocal microscope.
# [4] = N=3, read-out: Cell Viability, Mean
# [5] = read-out: Cell Viability, n1-n3
# [6] = A875 shp75, EXP3, 1 uM 4A22 + 100 ng/ml NGF
# [7] = A875 shp75 cells, EXP1, 1 uM 4A22, wells 1-4
# [8] = A875 shp75 cells, EXP1, 5 uM 4A22 + 100 ng/ml NGF, wells 1-4
# [9] = A875 shp75 cells, EXP2, 1 uM 4A22 + 100 ng/ml NGF, wells 1-4
# [10] = A875 shp75 cells, EXP2, 5 uM 4A22 + 100 ng/ml NGF, wells 1-4
# [11] = A875 shp75 cells, EXP2, 5 uM 4A22, wells 1-4
smiles,measurement,setting,value
Oc1ccc(-c2cncc(Nc3ccc(Br)c(Cl)c3)n2)cc1 [Div17E5],"viability at 2 days, 0.5 uM","[1]; Div17E5 0.5 uM, N=3",79%
same,"viability at 2 days, 1 uM",[1]; [4],75%
same,"viability at 2 days, 1 uM",[1]; [5],77%
same,"viability at 2 days, 1.5 uM",[1]; [4],65%
same,"viability at 2 days, 1.5 uM",[1]; [5],71%
same,"Cell Viability, n1-n3","A875 NT cells; Div17E5 0.5 uM, 2 days",76%
same,"Cell Viability, n1-n3","A875 NT cells; Div17E5 1 uM, 2 days",69% and 80%
same,"Cell Viability, n1-n3","A875 NT cells; Div17E5 1.5 uM, 2 days",66%
same,"Cell Viability, n1-n3","A875 NT cells; Div17E5 2.5 uM, 2 days",61% and 52%
same,"Cell Viability, n1-n3","A875 NT cells; Div17E5 5 uM, 2 days",51% and 57%
same,"Cell Viability, n1-n3","A875 NT cells; Div17E5 7.5 uM, 2 days",44% and 51%
same,"Cell Viability, n1-n3","A875 NT cells; Div17E5 10 uM, 2 days",39% and 42%
same,viability at 0.5 µM,"A875 NT cells; Homo sapiens, A875, 48 h, Div17E5 0.5 uM, 2 days, read-out: Cell Viability, n1-n3",85%
same,viability at 2 µM,"A875 NT cells; Homo sapiens, A875, 48 h, Div17E5 2 uM, 2 days, read-out: Cell Viability, n1-n3",67%
same,viability at 2.5 µM,"A875 NT cells; Homo sapiens, A875, 48 h, Div17E5 2.5 uM, 2 days, N=3, read-out: Cell Viability, Mean",59%
same,viability at 2.5 µM,"A875 NT cells; Homo sapiens, A875, 48 h, Div17E5 2.5 uM, 2 days, read-out: Cell Viability, n1-n3",65%
same,viability at 5 µM,"A875 NT cells; Homo sapiens, A875, 48 h, Div17E5 5 uM, 2 days, N=3, read-out: Cell Viability, Mean",55%
same,viability at 5 µM,"A875 NT cells; Homo sapiens, A875, 48 h, Div17E5 5 uM, 2 days, read-out: Cell Viability, n1-n3",58%
same,viability at 7.5 µM,"A875 NT cells; Homo sapiens, A875, 48 h, Div17E5 7.5 uM, 2 days, N=3, read-out: Cell Viability, Mean",50%
same,viability at 7.5 µM,"A875 NT cells; Homo sapiens, A875, 48 h, Div17E5 7.5 uM, 2 days, read-out: Cell Viability, n1-n3",55%
same,viability at 10 µM,"A875 NT cells; Homo sapiens, A875, 48 h, Div17E5 10 uM, 2 days, read-out: Cell Viability, n1-n3",49%
same,cell viability,A875 NT cells; above 10 μM,sensitive
same,cell viability,A875 NT cells; dose-dependent,decreased viability
Cc1cccc(-c2cncc(Nc3ccc(Br)c(Cl)c3Cl)n2)c1C [Np75-4A22],NGF-stimulated fascin/p75NTR interaction,[2],completely suppressed the effect of NGF
same,Toral fascin without background,"[3]; 1 μM 4A22, band OD, n1-n3",39995.1 and 74813.2 and 39347.1
same,Fold change (compared to untreated cells),"[3]; 1 μM 4A22, n1-n3",0.751 and 0.708 and 0.695
same,NGF-increased fascin in detergent insoluble fraction,"[3]; 1 μM, NGF 100 ng/ml",blocked this effect
same,Fold change (compared to untreated cells),"[3]; NGF + 1 μM 4A22, n1-n3",0.947 and 0.577 and 0.569
same,"filopodia per cell, compound alone",A875 shp75 cells; 1 or 5 μM,no effects per se
same,filopodia per cell (single image),A875 shp75 cells; [6],35
same,filopodia per cell (well mean),A875 shp75 cells; [6],35.0833 and 29.3333 and 46.5 and 31.1667
same,filopodia per cell (single image),"A875 shp75 cells; A875 shp75, EXP3, 5 uM 4A22",35
same,filopodia per cell (well mean),"A875 shp75 cells; A875 shp75, EXP3, 5 uM 4A22",26.25 and 40.3333 and 46.1111 and 41.3333
same,filopodia per cell (well mean),"A875 shp75 cells; A875 shp75, EXP3, 5 uM 4A22 + 100 ng/ml NGF",35.1667 and 32.8333 and 43.3889 and 37.5
same,filopodia per cell (mean of 3 experiments),A875 shp75 cells; 100ng/ml NGF&1uM 4A22,37.2384
same,filopodia per cell (mean of one experiment),A875 shp75 cells; 100ng/ml NGF&1uM 4A22,38.132 and 38.0625 and 35.5208
same,filopodia per cell (mean of 3 experiments),A875 shp75 cells; 100ng/ml NGF&5uM 4A22,37.6510
same,filopodia per cell (mean of one experiment),A875 shp75 cells; 100ng/ml NGF&5uM 4A22,35.6615 and 40.0695 and 37.2222
same,filopodia per cell (mean of 3 experiments),A875 shp75 cells; 1uM 4A22,34.8819
same,filopodia per cell (mean of one experiment),A875 shp75 cells; 1uM 4A22,30.6458 and 39.4583 and 34.5417
same,filopodia per cell (mean of 3 experiments),A875 shp75 cells; 5uM 4A22,36.6829
same,filopodia per cell (mean of one experiment),A875 shp75 cells; 5uM 4A22,35.8958 and 35.6458 and 38.5069
same,filopodia per cell (well mean),"A875 shp75 cells; A875 shp75 cells, EXP1, 1 uM 4A22 + 100 ng/ml NGF, wells 1-4",34.0833 and 42.6667 and 40.1111 and 35.6667
same,filopodia per cell (single image),A875 shp75 cells; [7],35
same,filopodia per cell (well mean),A875 shp75 cells; [7],28.25 and 31.6667 and 30.4167 and 32.25
same,filopodia per cell (single image),A875 shp75 cells; [8],35
same,filopodia per cell (well mean),A875 shp75 cells; [8],38.8333 and 30.1667 and 37.3125 and 36.3333
same,filopodia per cell (well mean),"A875 shp75 cells; A875 shp75 cells, EXP1, 5 uM 4A22, wells 1-4",36.5 and 34.5 and 32.75 and 39.8333
same,filopodia per cell (single image),A875 shp75 cells; [9],35
same,filopodia per cell (well mean),A875 shp75 cells; [9],43.1667 and 38 and 39.3333 and 31.75
same,filopodia per cell (well mean),"A875 shp75 cells; A875 shp75 cells, EXP2, 1 uM 4A22, wells 1-4",35.6667 and 37.1667 and 36.6667 and 48.3333
same,filopodia per cell (single image),A875 shp75 cells; [10],35
same,filopodia per cell (well mean),A875 shp75 cells; [10],43.6667 and 38.1667 and 45.6111 and 32.8333
same,filopodia per cell (single image),A875 shp75 cells; [11],35
same,filopodia per cell (well mean),A875 shp75 cells; [11],36.5 and 31 and 38.1667 and 36.9167
